These results are taken from ChEMBL document CHEMBL3861995 (Bioorg Med Chem, 2016).

For test [1], the target named is T1, Protein kinase C (PKC) (Homo sapiens) (UniProt O94806+P41743+P17252+P05129+Q05655+P05771+Q05513+Q02156+P24723+Q15139+Q04759). The experiment in a line: Inhibition of PKC in human SH-SY5Y cells assessed as inhibition of PMA-stimulated MARCKS phosphorylation at 3 uM preincubated for 1 hr followed by PMA-stimulation for 15 mins by Western blot analysis relative to control. In kind it is cell-based.

For another test, the target named is T2, Estrogen receptor (Homo sapiens, UniProt P03372).
T2 sequence (P03372 whole entry): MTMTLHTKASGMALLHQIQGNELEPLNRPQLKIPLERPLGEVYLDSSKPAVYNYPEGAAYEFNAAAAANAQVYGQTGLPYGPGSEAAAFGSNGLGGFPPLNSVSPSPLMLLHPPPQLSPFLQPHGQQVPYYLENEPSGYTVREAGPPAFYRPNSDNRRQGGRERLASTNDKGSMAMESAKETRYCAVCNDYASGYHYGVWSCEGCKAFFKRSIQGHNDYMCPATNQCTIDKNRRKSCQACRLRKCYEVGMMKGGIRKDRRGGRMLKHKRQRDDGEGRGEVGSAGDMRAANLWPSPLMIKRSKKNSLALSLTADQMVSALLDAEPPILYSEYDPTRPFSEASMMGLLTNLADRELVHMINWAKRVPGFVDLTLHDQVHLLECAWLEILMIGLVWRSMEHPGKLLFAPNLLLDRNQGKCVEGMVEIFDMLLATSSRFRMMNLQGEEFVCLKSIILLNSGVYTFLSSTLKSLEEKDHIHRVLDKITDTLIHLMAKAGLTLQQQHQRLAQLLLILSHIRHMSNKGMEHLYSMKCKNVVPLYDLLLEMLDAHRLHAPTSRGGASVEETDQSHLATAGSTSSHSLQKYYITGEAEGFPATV
The experiment in a line: biochemical.

The target in test [2] is T1, Protein kinase C (PKC) (Homo sapiens). Briefly: Inhibition of PKC in human SH-SY5Y cells assessed as inhibition of PMA-stimulated MARCKS phosphorylation at 10 uM preincubated for 1 hr followed by PMA-stimulation for 15 mins by Western blot analysis relative to control. It counts as cell-based. On the technique in general: Immunoblotting shows a protein as a band on a membrane.

In general, inhibition refers to the relative decrease from the control value, in per cent. One may read the IC50 as the concentration that gives 50% inhibition.

Description for Estrogen receptor: Displacement of Fluormone ES2 Green from human recombinant full length ERalpha expressed in insect cells measured up to 4 hrs by fluorescence polarization assay

Regarding `N#CC(=C(c1ccc(OCCN2CCOCC2)cc1)c1ccc(OCCN2CCOCC2)cc1)c1ccccc1`, the inhibition came out at 62% in test [1] and 72% in test [2]. This molecule also gave an IC50 at Estrogen receptor of 0.553 µM.
Turning to `CN(C)CCOc1ccc(C(=C(C#N)c2ccccc2)c2ccccc2)cc1`, the inhibition worked out at 22% in test [1] and 67% in test [2].
Consider `N#C/C(=C(/c1ccccc1)c1ccc(OCCN2CCOCC2)cc1)c1ccccc1`, for which the inhibition was 37% in test [1] and 70% in test [2].
For `CCN(CC)CCOc1ccc(C(=C(C#N)c2ccccc2)c2ccc(OCCN(CC)CC)cc2)cc1`, the inhibition in test [1] was 12%; in test [2], 68%. The IC50 against Estrogen receptor is more than 10 µM.
In the case of `N#C/C(=C(\c1ccccc1)c1ccc(OCCN2CCOCC2)cc1)c1ccccc1`, the figures for the inhibition in test [1] and in test [2] were 43% and 57%, respectively.
As for `CN(C)CCOc1ccc(C(=C(C#N)c2cccs2)c2ccc(OCCN(C)C)cc2)cc1`, the values for the inhibition in test [1] and in test [2] were 39% and 68%, respectively. On Estrogen receptor, this molecule yielded an IC50 of more than 10 µM.
On the same counts, the results for `CN1CCN(CCOc2ccc(C(=C(C#N)c3ccccc3)c3ccc(OCCN4CCN(C)CC4)cc3)cc2)CC1` are 83%, 78% and more than 10 µM.
